Measurements published in patent US11731969B2, “Crystal polymorph of 8-bromo-2-(1-methylpiperidin-4-ylamino)-4-(4-phenoxyphenylamino)pyrido[4,3-d]pyrimidin-5(6H)-one hydrochloride and method for preparing same” (OSCOTEC INC., priority 2018, dated 2023).
Structures can show the parent of a compound that is named as a salt.

Experiments:
[1] = Evaluation of hygroscopicity by dynamic moisture adsorption analyzer (DVS); type: physicochemical; settings: for Hygroscopicity (%): 25° C., DVS, hydrochloride
Experimental: 8-bromo-2-(1-methylpiperidin-4-ylamino)-4-(4-phenoxyphenylamino)pyrido[4,3-d]pyrimidin-5(6H)-one hydrochloride (Compound 1) represented by the above Formula 1 and the crystalline form (VI) obtained in the Examples were measured for hygroscopicity in a relative humidity range of 0% to 90% at 25° C. using a dynamic moisture adsorption analyzer (DVS).

[2] = Evaluation of solubility in distilled water (HPLC); type: physicochemical; settings: for Solubility: distilled water, 20 mg/ml added, stirred 2 hours at room temperature (25° C.), filtered, HPLC, hydrochloride; for Solubility as compared with Compound 1 (in words): summary of Table 1
Experimental: Distilled water was added to 8-bromo-2-(1-methylpiperidin-4-ylamino)-4-(4-phenoxyphenylamino)pyrido[4,3-d]pyrimidin-5(6H)-one hydrochloride (Compound 1) represented by the above Formula 1 and the crystalline form (VI) and the crystalline form (X) obtained in the Examples such that the concentration was 20 mg/ml, which was stirred for 2 hours at room temperature (25° C.) and then filtered. Thereafter, it was diluted 200 times with acetonitrile of a concentration of 50%.

protein kinase = settings: see Korean Laid-open Patent Publication No. 2014-0144709; cited from earlier work

Row | SMILES | Hygroscopicity (%) ([1]; relative humidity 0.0%) | Hygroscopicity (%) ([1]; relative humidity 10.0%) | Hygroscopicity (%) ([1]; relative humidity 20.0%) | Hygroscopicity (%) ([1]; relative humidity 30.0%) | Hygroscopicity (%) ([1]; relative humidity 40.0%) | Hygroscopicity (%) ([1]; relative humidity 50.0%) | Hygroscopicity (%) ([1]; relative humidity 60.0%) | Hygroscopicity (%) ([1]; relative humidity 70.0%) | Hygroscopicity (%) ([1]; relative humidity 80.0%) | Hygroscopicity (%) ([1]; relative humidity 90.0%) | Hygroscopicity as compared with Compound 1 (in words) ([1]; summary of Table 2) | Solubility [2] [mg/mL] | Solubility as compared with Compound 1 (in words) [2] | Effect on the activity of protein kinase (in words) (protein kinase)
1 | CN1CCC(Nc2nc(Nc3ccc(Oc4ccccc4)cc3)c3c(=O)[nH]cc(Br)c3n2)CC1 [Crystalline form (VI), 8-bromo-2-(1-methylpiperidin-4-ylamino)-4-(4-phenoxyphenylamino)pyrido[4,3-d]pyrimidin-5(6H)-one hydrochloride] | 0.004 | 0.707 | 0.948 | 1.132 | 1.280 | 1.419 | 1.561 | 1.726 | 1.973 | 2.452 | improved hygroscopicity | 19.1 | improved solubility | 
2 | CN1CCC(Nc2nc(Nc3ccc(Oc4ccccc4)cc3)c3c(=O)[nH]cc(Br)c3n2)CC1 [Crystalline form (X), 8-bromo-2-(1-methylpiperidin-4-ylamino)-4-(4-phenoxyphenylamino)pyrido[4,3-d]pyrimidin-5(6H)-one hydrochloride] |  |  |  |  |  |  |  |  |  |  |  | 17.3 | improved solubility | 
3 | CN1CCC(Nc2nc(Nc3ccc(Oc4ccccc4)cc3)c3c(=O)[nH]cc(Br)c3n2)CC1 [Compound 1, 8-bromo-2-(1-methylpiperidin-4-ylamino)-4-(4-phenoxyphenylamino)pyrido[4,3-d]pyrimidin-5(6H)-one hydrochloride] | 0.001 | 0.655 | 1.202 | 1.695 | 2.081 | 2.457 | 2.823 | 3.215 | 3.696 | 4.584 |  | 0.25 |  | has an effect of inhibiting the activity of protein kinase
